The text below walks through data of US20080108582A1, “Methods And Compositions For Combinatorial Approaches To Cancer Gene Therapy” (priority 2003, published 2008).

The subject of data set [1] is p53-RE (p53C#18) in wild type mouse embryonic fibroblasts. The experiment in a line: p53 response element luciferase assay with cisplatin. The following applies: wild type MEF; increasing concentrations at the time of transfection. It is filed as cell-based. As to the method:
FIG. 12. Treatment with cisplatin enhances activity of p53-RE in cells with wild type p53. Wild type and p53−/− mouse embryonic fibroblasts (MEF) were transfected with p53C#18 as described above. Increasing concentrations of cisplatin were added at the time of transfection. Luciferase assay was performed 36-48 hours later and transfection efficiency was normalized.
To determine whether treatment with cisplatin (which increases steady-state level of p53 protein) can enhance activity of the p53-RE in normal cells, wild type and p53−/− mouse embryonic fibroblasts were treated with increasing concentrations of cisplatin at the time of transfection (FIG. 12).

The subject of a further data set is mouse model. The following applies: 100 mg/kg, intra-peritoneal; cited from earlier work.
Data set [2] has as its system MCF-7 cells. The experiment in a line: MTS cytotoxicity assay. The class given is cell-based, Human. As to the method: (§1) MTS cytotoxicity assay. Cells were plated 2×10^4 per well in triplicate wells and incubated overnight. Serial dilutions of soluble TRAIL in Hank's balanced salt solution (HBSS) were added to the wells and cells were incubated for an additional 36 hours. Cytotoxicity was assessed using a CellTiter 96 Non-Radioactive Cell Proliferation Assay and medium background was subtracted. Results are presented as percent of HBSS-treated control.
(In general: Tetrazolium dyes change colour on reduction, which living cells bring about.)

In data set [3] the test system is HCC 1937 cells. The experiment in a line: MTS cytotoxicity assay. It is filed as cell-based, Human. How it is done: as §1
The next data set deals with MDA-MB-231 cells. The experiment in a line: MTS cytotoxicity assay. It is filed as cell-based, Human. The following applies: increasing concentrations of recombinant TRAIL, 48 hours. How it is done:
(§2) MTS cytotoxicity assay. Cells were plated 2×10^4 per well in triplicate wells and incubated overnight. […] Cytotoxicity was assessed using a CellTiter 96 Non-Radioactive Cell Proliferation Assay and medium background was subtracted. Results are presented as percent of HBSS-treated control.

For a further data set, the system named is CAMA-1 cells. The data set can be described thus: MTS cytotoxicity assay. The class given is cell-based, Human. The following applies: increasing concentrations of recombinant TRAIL, 48 hours. As to the method: as §2
Data set [4] concerns MCF-7 cells. The data set can be described thus: Annexin V determination by flow cytometry. The following applies: 100 ng of TRAIL for 36 hours. It is filed as cell-based, Human. As to the method:
(§3) Annexin V determination. 1×10^6 cells were plated per 60 mm dish and cultured overnight. Cells were than left untreated or treated with soluble TRAIL (100 ng/ml) and incubated for additional 36 hours. Cells were than trypsinized and washed with 1× Binding Buffer. For each condition, half of the cell suspension was left untreated and another half was incubated for 15 minutes at room temperature in the dark with Annexin V. Immediately after staining, cells were analyzed by flow cytometry.

Data set [5] concerns HCC 1937 cells. The data set can be described thus: Annexin V determination by flow cytometry. It is filed as cell-based, Human. To be noted: 100 ng of TRAIL for 36 hours. As to the method:
as §3
In general terms: In flow cytometry, cells or beads pass a laser one at a time.

“Also recorded” adds a separate entry of the source.

Regarding `N.N.[Cl][Pt][Cl]` [Cisplatin, cisplatin], the “effect on activity of p53-RE (in words)” value in data set [1] is recorded as “enhanced activity of p53C#18 in cells with wild type p53 in a dose-dependent manner”.

On to `CCc1c2c(nc3ccc(OC(=O)N4CCC(N5CCCCC5)CC4)cc13)-c1cc3c(c(=O)n1C2)COC(=O)[C@]3(O)CC` [irinotecan], for which, in the data set with mouse model, the “drug-related toxicity (in words)” value is recorded as “without drug-related toxicity” and the “survival in a mouse model (in words)” value is “prolong survival”.

As for “TRAIL: soluble TRAIL, residues 114-281 of the soluble domain of human TRAIL, expressed in E. coli (BIOMOL)”, the “sensitivity to TRAIL-induced apoptosis by MTS (in words)” value with MCF-7 cells [2] and in the data set with HCC 1937 cells [3] was “completely resistant” in each case. Moreover, the “cell viability by MTS (in words)” value with MDA-MB-231 cells is on record as “significant TRAIL-dependent reduction of viability; also recorded: biphasic effect”; with CAMA-1 cells it was “significant TRAIL-dependent reduction of viability”. Further, the “increase in Annexin V staining” value in the data set on MCF-7 cells [4] and in the data set on HCC 1937 cells [5] was “approximately 17%” each time.
